Measured values as given in US8796289B2 (AbbVie Inc., priority 2011, dated 2014).

Target: GST-tagged-Wee1 kinase (Homo sapiens, UniProt P30291)
Test: Wee1 time-resolved fluorescence equilibrium binding assay (displacement of Oregon Green-labeled ATP-competitive kinase probe)
Method: Wee1 kinase was assayed using a time-resolved fluorescence equilibrium binding assay monitoring displacement of a rapidly reversible Oregon Green-labeled ATP-competitive kinase probe (N-(2-(2-(2-(4-(4-(5-chloro-4-(2-(1-hydroxycyclobutyl)thiazol-5-yl)-1H-pyrrolo[2,3-b]pyridin-2-yl)phenyl)piperazin-1-yl)ethoxy)ethoxy)ethyl)-2′,7′-difluoro-3′,6′-dihydroxy-3-oxo-3H-spiro[isobenzofuran-1,9′-xanthene]-5-carboxamide) by competitive Wee1 inhibitors.

Sequence of GST-tagged-Wee1 kinase (P30291 whole entry): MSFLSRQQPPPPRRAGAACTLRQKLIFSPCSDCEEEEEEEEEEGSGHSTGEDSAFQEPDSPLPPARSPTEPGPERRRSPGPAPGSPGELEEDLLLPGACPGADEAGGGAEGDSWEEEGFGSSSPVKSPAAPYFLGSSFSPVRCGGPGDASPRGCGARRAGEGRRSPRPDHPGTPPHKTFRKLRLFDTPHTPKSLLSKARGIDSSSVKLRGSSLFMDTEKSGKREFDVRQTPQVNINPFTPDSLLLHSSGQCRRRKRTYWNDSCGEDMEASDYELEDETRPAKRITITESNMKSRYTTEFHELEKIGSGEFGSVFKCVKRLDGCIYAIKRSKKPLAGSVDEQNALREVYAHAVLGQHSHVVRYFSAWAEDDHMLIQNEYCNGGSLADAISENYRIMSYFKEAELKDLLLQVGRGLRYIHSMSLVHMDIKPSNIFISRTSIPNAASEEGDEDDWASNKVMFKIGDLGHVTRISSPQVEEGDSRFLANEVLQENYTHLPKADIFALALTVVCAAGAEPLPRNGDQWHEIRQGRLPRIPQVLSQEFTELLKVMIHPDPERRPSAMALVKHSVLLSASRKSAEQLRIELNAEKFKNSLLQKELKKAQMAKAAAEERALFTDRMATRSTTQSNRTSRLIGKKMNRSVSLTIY

Row | SMILES | Ki
1 | CCc1nn(-c2c(Cl)cccc2Cl)c(=O)c2cnc(Nc3ccc4c(c3)C(C)(C)NCC4)nc12 [Example 463, 6-(2,6-dichlorophenyl)-2-[(1,1-dimethyl-1,2,3,4-tetrahydroisoquinolin-7-yl)amino]-8-ethylpyrimido[4,5-d]pyridazin-5(6H)-one] | 0.55 nM
2 | CCc1nn(-c2c(Cl)cccc2Cl)c(=O)c2cnc(Nc3ccc4c(c3)CNC(=O)C4)nc12 [Example 464, 6-(2,6-dichlorophenyl)-8-ethyl-2-[(3-oxo-1,2,3,4-tetrahydroisoquinolin-7-yl)amino]pyrimido[4,5-d]pyridazin-5(6H)-one] | 1.6 nM
3 | CCc1nn(-c2c(Cl)cccc2Cl)c(=O)c2cnc(Nc3ccc(CN4CCN(C)CC4)cc3)nc12 [Example 465, 6-(2,6-dichlorophenyl)-8-ethyl-2-({4-[(4-methylpiperazin-1-yl)methyl]phenyl}amino)pyrimido[4,5-d]pyridazin-5(6H)-one] | 0.88 nM
4 | CCc1nn(-c2c(Cl)cccc2Cl)c(=O)c2cnc(Nc3ccc4c(c3)CCNC4(C)C)nc12 [Example 466, 6-(2,6-dichlorophenyl)-2-[(1,1-dimethyl-1,2,3,4-tetrahydroisoquinolin-6-yl)amino]-8-ethylpyrimido[4,5-d]pyridazin-5(6H)-one] | 0.34 nM
5 | Cc1nn(-c2c(Cl)cccc2Cl)c(=O)c2cnc(Nc3ccc4c(c3)CNC(=O)C4)nc12 [Example 467, 6-(2,6-dichlorophenyl)-8-methyl-2-[(3-oxo-1,2,3,4-tetrahydroisoquinolin-7-yl)amino]pyrimido[4,5-d]pyridazin-5(6H)-one] | 0.47 nM
6 | CCc1nn(-c2c(Cl)cccc2Cl)c(=O)c2cnc(Nc3ccc(N4C[C@H]5C[C@@H]4CN5)cc3)nc12 [Example 468, 2-({4-[(1R,4R)-2,5-diazabicyclo[2.2.1]hept-2-yl]phenyl}amino)-6-(2,6-dichlorophenyl)-8-ethylpyrimido[4,5-d]pyridazin-5(6H)-one] | 0.69 nM
7 | CCc1nn(-c2c(Cl)cccc2Cl)c(=O)c2cnc(Nc3ccc(N4CCCN(C)CC4)c(C)c3)nc12 [Example 469, 6-(2,6-dichlorophenyl)-8-ethyl-2-{[3-methyl-4-(4-methyl-1,4-diazepan-1-yl)phenyl]amino}pyrimido[4,5-d]pyridazin-5(6H)-one] | 0.63 nM
8 | CCc1nn(-c2c(Cl)cccc2Cl)c(=O)c2cnc(Nc3ccc(N4CCNC(=O)C4)cc3)nc12 [Example 470, 6-(2,6-dichlorophenyl)-8-ethyl-2-{[4-(3-oxopiperazin-1-yl)phenyl]amino}pyrimido[4,5-d]pyridazin-5(6H)-one] | 0.99 nM
9 | Cc1nn(-c2c(Cl)cccc2Cl)c(=O)c2cnc(Nc3ccc4c(c3)CN(C)C4(C)C)nc12 [Example 471, 6-(2,6-dichlorophenyl)-8-methyl-2-[(1,1,2-trimethyl-2,3-dihydro-1H-isoindol-5-yl)amino]pyrimido[4,5-d]pyridazin-5(6H)-one] | 0.16 nM
10 | Cc1nn(-c2c(Cl)cccc2Cl)c(=O)c2cnc(Nc3cc4c(cc3Cl)CNCC4)nc12 [Example 472, 2-[(7-chloro-1,2,3,4-tetrahydroisoquinolin-6-yl)amino]-6-(2,6-dichlorophenyl)-8-methylpyrimido[4,5-d]pyridazin-5(6H)-one] | 2.3 nM
11 | O=c1c2cnc(Nc3ccc4c(c3)CCNC4)nc2c(C(F)F)nn1-c1c(Cl)cccc1Cl [Example 473, 6-(2,6-dichlorophenyl)-8-(difluoromethyl)-2-(1,2,3,4-tetrahydroisoquinolin-6-ylamino)pyrimido[4,5-d]pyridazin-5(6H)-one] | 0.38 nM
12 | CN1CCc2ccc(Nc3ncc4c(=O)n(-c5c(Cl)cccc5Cl)nc(C(F)F)c4n3)cc2C1 [Example 475, 6-(2,6-dichlorophenyl)-8-(difluoromethyl)-2-[(2-methyl-1,2,3,4-tetrahydroisoquinolin-7-yl)amino]pyrimido[4,5-d]pyridazin-5(6H)-one] | 0.24 nM
13 | CC(=O)N1CCc2cc(Nc3ncc4c(=O)n(-c5c(Cl)cccc5Cl)nc(C(F)F)c4n3)ccc2C1 [Example 476, 2-[(2-acetyl-1,2,3,4-tetrahydroisoquinolin-6-yl)amino]-6-(2,6-dichlorophenyl)-8-(difluoromethyl)pyrimido[4,5-d]pyridazin-5(6H)-one] | 0.17 nM
14 | CC(=O)N1CCc2ccc(Nc3ncc4c(=O)n(-c5c(Cl)cccc5Cl)nc(C(F)F)c4n3)cc2C1 [Example 477, 2-[(2-acetyl-1,2,3,4-tetrahydroisoquinolin-7-yl)amino]-6-(2,6-dichlorophenyl)-8-(difluoromethyl)pyrimido[4,5-d]pyridazin-5(6H)-one] | 0.67 nM
15 | CC1(C)CNCc2cc(Nc3ncc4c(=O)n(-c5c(Cl)cccc5Cl)nc(C(F)F)c4n3)ccc21 [Example 478] | 0.17 nM
16 | O=c1c2cnc(Nc3ccc(C4CCCNC4)cc3)nc2c(C(F)F)nn1-c1c(Cl)cccc1Cl (stereo not shown) [Example 479, 6-(2,6-dichlorophenyl)-8-(difluoromethyl)-2-{[4-(piperidin-3-yl)phenyl]amino}pyrimido[4,5-d]pyridazin-5(6H)-one] | 0.29 nM

Row | SMILES | Ki
17 | Cc1nn(-c2c(Cl)cccc2Cl)c(=O)c2cnc(Nc3cc4c(cc3F)CNCC4)nc12 [Example 480, 6-(2,6-dichlorophenyl)-2-[(7-fluoro-1,2,3,4-tetrahydroisoquinolin-6-yl)amino]-8-methylpyrimido[4,5-d]pyridazin-5(6H)-one] | 1.3 nM
18 | Cc1nn(-c2ccccc2Cl)c(=O)c2cnc(Nc3ccc4c(c3)CCNC4)nc12 [Example 481, 6-(2-chlorophenyl)-8-methyl-2-(1,2,3,4-tetrahydroisoquinolin-6-ylamino)pyrimido[4,5-d]pyridazin-5(6H)-one] | 0.73 nM
19 | Cc1nn(-c2ccccc2Cl)c(=O)c2cnc(Nc3ccc4c(c3)CNCC4(C)C)nc12 [Example 482, 6-(2-chlorophenyl)-2-[(4,4-dimethyl-1,2,3,4-tetrahydroisoquinolin-7-yl)amino]-8-methylpyrimido[4,5-d]pyridazin-5(6H)-one] | 0.31 nM
20 | Cc1nn(-c2ccccc2Cl)c(=O)c2cnc(Nc3ccc4c(c3)CN(C)CC4(C)C)nc12 [Example 483, 6-(2-chlorophenyl)-8-methyl-2-[(2,4,4-trimethyl-1,2,3,4-tetrahydroisoquinolin-7-yl)amino]pyrimido[4,5-d]pyridazin-5(6H)-one] | 0.55 nM
21 | Cc1nn(-c2ccccc2Cl)c(=O)c2cnc(Nc3ccc4c(c3)CC(N(C)C)C4)nc12 (stereo not shown) [Example 484, 6-(2-chlorophenyl)-2-{[2-(dimethylamino)-2,3-dihydro-1H-inden-5-yl]amino}-8-methylpyrimido[4,5-d]pyridazin-5(6H)-one] | 0.17 nM
22 | CN1Cc2cc(Nc3ncc4c(=O)n(-c5c(Cl)cccc5Cl)nc(C(F)F)c4n3)ccc2C1(C)C [Example 485, 6-(2,6-dichlorophenyl)-8-(difluoromethyl)-2-[(1,1,2-trimethyl-2,3-dihydro-1H-isoindol-5-yl)amino]pyrimido[4,5-d]pyridazin-5(6H)-one] | 0.15 nM
23 | CN1CCCC(c2ccc(Nc3ncc4c(=O)n(-c5c(Cl)cccc5Cl)nc(C(F)F)c4n3)cc2)C1 (stereo not shown) [Example 486, 6-(2,6-dichlorophenyl)-8-(difluoromethyl)-2-{[4-(1-methylpiperidin-3-yl)phenyl]amino}pyrimido[4,5-d]pyridazin-5(6H)-one] | 0.13 nM
24 | Cc1nn(-c2c(Cl)cncc2Cl)c(=O)c2cnc(Nc3ccc4c(c3)CN(C)CC43CC3)nc12 [Example 487, 6-(3,5-dichloropyridin-4-yl)-8-methyl-2-[(2′-methyl-2′,3′-dihydro-1′H-spiro[cyclopropane-1,4′-isoquinolin]-7′-yl)amino]pyrimido[4,5-d]pyridazin-5(6H)-one] | 0.27 nM
25 | Cc1nn(-c2c(Cl)cncc2Cl)c(=O)c2cnc(Nc3ccc4c(c3)CN(C)C4(C)C)nc12 [Example 488, 6-(3,5-dichloropyridin-4-yl)-8-methyl-2-[(1,1,2-trimethyl-2,3-dihydro-1H-isoindol-5-yl)amino]pyrimido[4,5-d]pyridazin-5(6H)-one] | 0.29 nM
26 | Cc1nn(-c2c(Cl)cccc2Cl)c(=O)c2cnc(Nc3ccc4c(c3)CNC4(C)C)nc12 [Example 489, 6-(2,6-dichlorophenyl)-2-[(1,1-dimethyl-2,3-dihydro-1H-isoindol-5-yl)amino]-8-methylpyrimido[4,5-d]pyridazin-5(6H)-one] | 0.089 nM
27 | Cc1nn(-c2c(Cl)cccc2Cl)c(=O)c2cnc(Nc3ccc4c(c3)CN(C)CC4)nc12 [Example 490, 6-(2,6-dichlorophenyl)-8-methyl-2-[(2-methyl-1,2,3,4-tetrahydroisoquinolin-7-yl)amino]pyrimido[4,5-d]pyridazin-5(6H)-one] | 0.11 nM
28 | Cc1nn(-c2c(Cl)cccc2Cl)c(=O)c2cnc(Nc3ccc4c(c3)CN(C)C4)nc12 [Example 491, 6-(2,6-dichlorophenyl)-8-methyl-2-[(2-methyl-2,3-dihydro-1H-isoindol-5-yl)amino]pyrimido[4,5-d]pyridazin-5(6H)-one] | 0.26 nM
29 | CCc1nn(-c2c(Cl)cccc2Cl)c(=O)c2cnc(Nc3ccc4c(c3)CCN(C)C4)nc12 [Example 492, 6-(2,6-dichlorophenyl)-8-ethyl-2-[(2-methyl-1,2,3,4-tetrahydroisoquinolin-6-yl)amino]pyrimido[4,5-d]pyridazin-5(6H)-one] | 0.56 nM
30 | CCc1nn(-c2c(Cl)cccc2Cl)c(=O)c2cnc(Nc3ccc4c(c3)CN(C)CC4)nc12 [Example 493, 6-(2,6-dichlorophenyl)-8-ethyl-2-[(2-methyl-1,2,3,4-tetrahydroisoquinolin-7-yl)amino]pyrimido[4,5-d]pyridazin-5(6H)-one] | 0.86 nM
31 | CCc1nn(-c2c(Cl)cccc2Cl)c(=O)c2cnc(Nc3ccc4c(c3)CN(C)C4)nc12 [Example 494, 6-(2,6-dichlorophenyl)-8-ethyl-2-[(2-methyl-2,3-dihydro-1H-isoindol-5-yl)amino]pyrimido[4,5-d]pyridazin-5(6H)-one] | 0.31 nM
